Source: patent publication US5070210A, “Novel ketenimines as intermediates for insecticides” (ICI Americas Inc., priority 1990, dated 1991)

What was measured:
Type in all cases: in vivo
[1] = system: Maize weevil [Sitophilus Zeamais (Motschulsky)]; experiment: Maize weevil insecticidal test; conditions: adult weevils, percent in solution; 48 hours
Outline: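 LC50, in percent of compound in solution, was derived from dosage-mortality curves after 48 h at about 25 °C. Ten adult weevils per container fed on four corn seeds briefly immersed in acetone:water (50:50) solutions of up to 0.01% and dried.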

[2] = system: Rice water weevil [Lissorhoptrus oryzophilus (Kuschel)]; experiment: Rice water weevil insecticidal test; conditions: topical, μg per weevil; 48 hours
Experimental: (§1) The compounds in Tables 1 and 2 above were tested for insecticidal activity using the following testing procedures. LC50 values, based on the results of these tests and calculated according to dosage-mortality curves, are expressed in Table 3.
Rice water weevil [Lissorhoptrus oryzophilus (Kuschel)]:
Test compounds were diluted in acetone. Droplets (1 μl) of test solutions were applied to the ventral abdomens of ten female adult weevils. The treated weevils were placed in containers with wet cotton balls and rice foliage. The containers were covered and kept at a temperature of about 25° C. Mortality was recorded after 48 hours. Test concentrations ranged from […] or 2.5 μg per weevil down to that at which 50% mortality occurred. The LC50 values are expressed below in Table 3 under the heading "RWW" in terms of μg of test compound per weevil.

[3] = system: Tobacco Budworm [Heliothis virescens (Fabricius)] eggs; experiment: Tobacco budworm egg test; conditions: 2-day old eggs, percent in solution
Outline: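 Paper-towel patches of 2-day-old eggs dipped in acetone solutions of compound (0.1% downward), held on larval rearing medium at 78° F. Mortality scored once all control eggs had hatched and larvae were feeding; LC50 from dosage-mortality curves, expressed as percent compound in solution.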

[4] = system: Aster Leafhopper [Macrosteles fascifrens (Stal)]; experiment: Aster leafhopper insecticidal test; conditions: adults/nymphs, percent in solution; 48 hours
Outline: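 LC50 values, given as percent of test compound in the dip solution, were derived from dosage-mortality curves over concentrations from 0.05% downward. Mortality was counted 48 hours after ten leafhopper adults/nymphs were enclosed on treated seedlings. The seedlings were oats, about 10 cm tall, briefly dipped in 50-50 acetone-water.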

[5] = system: Cabbage Looper [Trichoplusia ni (Hubner)]; experiment: Cabbage looper insecticidal test; conditions: second-instar larvae, percent in solution; 3-5 days
Outline: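 Squash cotyledons dipped 2-3 s in compound in 50-50 acetone-water, dried, then infested with 5 second-instar larvae and held at high humidity. Mortality scored after 3-5 days at concentrations from 0.1% downward. LC50 from dosage-mortality curves, expressed as percent compound in solution.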

[6] = system: Housefly [Musca domestica]; experiment: Housefly insecticidal test; conditions: μg per 25 female flies; mortality after 48 hours
Outline: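 Dry-film exposure of 25 female houseflies per cage, 48 h; LC50 as μg per 25 flies.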

[7] = system: Tobacco Budworm [Heliothis virescens (Fabricius)] larvae; experiment: Tobacco budworm contact test; conditions: second-instar larvae, percent in solution, 5 days
Outline: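 Cotton cotyledons dipped 2–3 s in compound in 50-50 acetone-water, dried, then infested with 5 second-instar larvae and held 5 days at high humidity. Mortality scored; LC50 from dosage-mortality curves, expressed as percent compound in solution, concentrations from 0.1% downward.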

[8] = system: Beet Armyworm (Spodoptera exigua); experiment: Beet armyworm insecticidal test; conditions: second-instar larvae, percent in solution; five days
Experimental: as §1
Beet Armyworm (Spodoptera exigua):
Test compounds were diluted in a 50-50 acetone-water solution. Young leaves of sugar beets (Beta vulgaris) were immersed in the test solutions for 2-3 seconds and placed on a wire screen to dry. The dried leaves were placed in petri dishes containing a moistened filter paper and infested with five second-instar beet armyworm larvae. The dishes were placed in a high humidity chamber. Mortality of the larvae was recorded five days later. Test concentrations ranged from 0.1% downward. The LC-50 values are expressed below in Table 3 under the heading "BAW" in terms of percent of the test compound in solution.

Structure (SMILES)	LC50, MW [1] [%]	LC50, RWW [2] [µg]	LC50, TBW, E (TBW-E) [3] [%]	LC50, LH [4] [%]	LC50, CL [5] [%]	LC50, HF [6] [µg]	LC50, TBW, C (TBW-C) [7] [%]	LC50, BAW [8] [%]
CC(C)C(=Nc1ccc(C(F)(F)F)cc1)OCc1cccc(Oc2ccccc2)c1 [Compound 68]	> 0.01	0.15	0.009	0.0001	0.006	37	–	–
CCC(=Nc1ccc(F)c(Cl)c1)OCc1cccc(Oc2ccccc2)c1 [Compound 85]	> 0.01	> 2.5	> 0.1	0.003	0.004	7	–	–
Fc1ccc(N=C(OCc2cccc(Oc3ccccc3)c2)C2CC2)cc1Cl [Compound 113]	–	> 2.5	0.1	–	0.005	15	–	–
CC(C)C(=Nc1ccc(F)c(Cl)c1)OCc1cccc(Oc2cccc(F)c2)c1 [Compound 125]	> 0.01	> 2.5	0.025	> 0.05	0.0007	12	–	–
CC(C)C(=Nc1ccc(F)c(Cl)c1)OCc1cccc(Oc2ccc(F)cc2F)c1 [Compound 191]	0.004	> 2.5	0.04	> 0.05	0.00023	29	–	–
CC(C)C(=Nc1c(F)c(F)c(F)c(F)c1F)OCc1cccc(Oc2ccc(F)cc2)c1 [Compound 198]	0.003	> 2.5	> 0.1	0.05	0.0005	52	–	–
CC(C)C(=Nc1ccc(F)c(Cl)c1)OCc1cc(Oc2ccc(F)cc2)ccc1F [Compound 230]	0.038	> 2.5	0.1	–	0.0004	36	–	–
CC(C)C(=Nc1ccc(F)c(Br)c1)OCc1cccc(Oc2ccccc2)c1 [Compound 254]	–	> 2.5	0.026	–	0.001	6	–	–
CC(C)C(=Nc1ccc(F)c(Cl)c1)OCc1cccc(Oc2ccc(F)cc2)c1F [Compound 262]	0.005	> 2.5	> 0.1	–	0.0004	26	–	–
CC(C)(F)C(=Nc1ccc(F)c(Cl)c1)OCc1ccc(F)c(Oc2ccc(F)cc2)c1 [Compound 310]	–	> 2.5	0.015	–	0.00006	4.5	–	–
CC(C)C(=Nc1ccc(C(F)(F)F)cc1)OCc1ccc(F)c(Oc2ccc(F)cc2)c1 [Compound 314]	–	0.11	0.012	–	0.00005	21	–	–
CC(C)C(=Nc1ccc(OC(F)(F)F)cc1)OCc1ccc(F)c(Oc2ccc(F)c(F)c2)c1 [Compound 347]	> 0.01	–	> 0.1	0.0002	0.000075	30	0.0001	0.00075
CC(C)C(=Nc1ccc(F)c(F)c1F)OCc1cccc(Oc2ccc(F)cc2)c1 [Compound 348]	> 0.01	–	> 0.1	0.05	0.0002	8	0.00075	> 0.1
CCOc1ccc(N=C(OCc2ccc(F)c(Oc3ccc(Cl)cc3)c2)C(C)C)cc1Cl [Compound 369]	> 0.01	> 2.5	> 0.1	–	0.0016	> 100	–	–
CCOc1ccc(N=C(OCc2ccc(F)c(Oc3ccccc3)c2)C(C)C)cc1Cl [Compound 370]	> 0.01	> 2.5	0.02	–	0.00034	< 100	–	–
CC(C)C(=Nc1cccc(F)c1)OCc1ccc(F)c(Oc2ccc(Cl)cc2)c1 [Compound 375]	> 0.01	> 2.5	0.04	–	> 0.1	7.9	–	–
CC(C)C(=Nc1ccc(Cl)c(Cl)c1)OCc1ccc(F)c(Oc2ccccc2)c1 [Compound 376]	0.0061	0.1	0.02	–	0.00037	17	–	–
CC(C)C(=Nc1ccc(C(F)(F)F)c(Br)c1)OCc1ccc(F)c(Oc2ccc(Cl)cc2)c1 [Compound 377]	> 0.01	> 2.5	> 0.1	–	0.00062	< 100	–	–
CC(C)C(=Nc1ccc(Br)cc1)OCc1ccc(F)c(Oc2ccc(Cl)cc2)c1 [Compound 378]	> 0.01	> 2.5	0.02	–	0.00034	< 100	–	–
CC(C)C(=Nc1ccc(Br)c(Cl)c1)OCc1cccc(Oc2ccc(Cl)cc2)c1 [Compound 380]	> 0.01	> 2.5	> 0.1	–	> 0.1	> 100	–	–
CC(C)C(=Nc1ccc(Br)c(Cl)c1)OCc1ccc(F)c(Oc2ccc(Cl)cc2)c1 [Compound 381]	> 0.01	> 2.5	0.018	–	0.00092	< 100	–	–
CC(C)C(=Nc1ccc(Br)c(Cl)c1)OCc1ccc(F)c(Oc2ccc(F)cc2)c1 [Compound 382]	> 0.01	> 2.5	0.027	–	0.00029	< 100	–	–
CC(C)C(=Nc1cccc(Br)c1)OCc1ccc(F)c(Oc2ccccc2)c1 [Compound 387]	> 0.01	> 2.5	0.05	–	0.0012	< 100	–	–
CC(C)C(=Nc1ccc(Cl)cc1)OCc1ccc(F)c(Oc2ccc(Cl)cc2)c1 [Compound 391]	> 0.01	> 2.5	0.035	–	0.00029	< 100	–	–
C=C(C)C(=Nc1ccc(C(F)(F)F)cc1)OCc1ccc(F)c(Oc2ccccc2)c1 [Compound 431]	0.0037	0.084	0.025	–	0.00017	9.8	–	–
CC(C)C(=Nc1ccc(C(F)(F)F)c(Br)c1)OCc1ccc(F)c(Oc2ccc(Cl)cc2)c1 [Compound 433]	0.005	0.078	0.02	–	0.00017	< 100	–	–
CC(C)C(=Nc1ccc(Cl)c(OCC(F)(F)F)c1)OCc1ccc(F)c(Oc2ccc(Cl)cc2)c1 [Compound 452]	> 0.01	0.1	< 0.1	–	0.0017	> 100	–	–
